Source: ChEMBL document CHEMBL1126898 (J Med Chem, 1993)
pIC50: −log10 of the molar value.

What follows are compounds tested against Sodium-dependent dopamine transporter (Rattus norvegicus, UniProt P23977) (assay: Inhibition of [3H]WIN-35428 binding to dopamine transporter in rat striatal membranes.).
Type: cell membranes, Membrane

Chain of Sodium-dependent dopamine transporter (P23977 whole entry): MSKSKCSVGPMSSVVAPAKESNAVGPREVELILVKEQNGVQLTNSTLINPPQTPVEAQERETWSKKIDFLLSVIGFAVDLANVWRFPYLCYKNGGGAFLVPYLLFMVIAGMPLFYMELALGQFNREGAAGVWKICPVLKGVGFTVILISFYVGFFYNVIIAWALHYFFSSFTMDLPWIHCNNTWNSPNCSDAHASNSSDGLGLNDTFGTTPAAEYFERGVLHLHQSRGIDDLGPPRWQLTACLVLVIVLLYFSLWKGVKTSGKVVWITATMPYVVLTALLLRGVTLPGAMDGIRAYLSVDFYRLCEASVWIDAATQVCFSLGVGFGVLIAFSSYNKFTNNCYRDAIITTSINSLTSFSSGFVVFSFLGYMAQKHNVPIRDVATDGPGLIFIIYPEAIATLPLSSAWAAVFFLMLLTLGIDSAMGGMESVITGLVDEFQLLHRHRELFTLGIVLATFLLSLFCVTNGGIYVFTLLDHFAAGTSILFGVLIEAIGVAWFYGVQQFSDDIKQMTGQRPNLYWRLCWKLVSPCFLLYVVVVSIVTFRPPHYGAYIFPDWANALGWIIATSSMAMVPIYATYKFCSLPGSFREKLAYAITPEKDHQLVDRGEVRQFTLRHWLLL

Going from CN1C2CCC1C(CO)[C@H](OC(=O)c1ccccc1)C2 (stereo not given in full) to CN1C2CCC1C(C(=O)Oc1ccccc1)[C@H](OC(=O)c1ccccc1)C2 (stereo not given in full), the pIC50 rises from 6.25 to 6.95 (0.70 log units). The second is the more potent here.

COC(=O)C1C2CCC(C[C@H]1c1ccc(N)cc1)N2C (stereo not given in full) and COC(=O)C1C2CCC(C[C@H]1c1ccccc1)N2C (stereo not given in full) are within 0.2 log units of each other in pIC50: 7.60 for the first, 7.64 for the second.

Compared with CN1C2CCC1C(C(=O)OCCc1ccc(N)cc1)[C@H](OC(=O)c1ccccc1)C2 (stereo not given in full), CN1C2CCC1C(C(=O)OCCc1ccccc1)[C@H](OC(=O)c1ccccc1)C2 (stereo not given in full) is 0.53 log units lower in pIC50: 7.14 for the first, 6.61 for the second.

Going from COC(=O)C1C2CCC(C[C@H]1OC(=O)c1ccccc1)N2 (stereo not given in full) to COC(=O)[C@H]1C2CCC(C[C@@H]1OC(=O)c1ccccc1)N2 (stereo in doubt; form 2) [PSEUDOCOCAINE], the pIC50 falls from 6.52 to 4.80 (1.72 log units).

Going from COC(=O)C1C2CCC(C[C@H]1OC(=O)c1ccccc1)N2Cc1ccccc1 (stereo not given in full) to COC(=O)[C@H]1C2CCC(C[C@@H]1OC(=O)c1ccccc1)N2 (stereo in doubt; form 1) [PSEUDOCOCAINE], the pIC50 falls from 6.18 to 4.65 (1.53 log units).
